# Values quoted from earlier work, collected in patent US11648240B2, “Pharmaceutical composition comprising famotidine, lidocaine and melatonin” (Cellix Bio Private Limited, priority 2021, dated 2023).
# Key:
# [1] = test system: human immunodeficiency virus; conditions: in-vitro studies
# sars-cov-2 = conditions: in-vitro studies
# CYP1A2 = CYP1A2 (Homo sapiens, UniProt P05177); conditions: stated as believed, no test described
# Chain of CYP1A2 (P05177 whole entry, species assumed): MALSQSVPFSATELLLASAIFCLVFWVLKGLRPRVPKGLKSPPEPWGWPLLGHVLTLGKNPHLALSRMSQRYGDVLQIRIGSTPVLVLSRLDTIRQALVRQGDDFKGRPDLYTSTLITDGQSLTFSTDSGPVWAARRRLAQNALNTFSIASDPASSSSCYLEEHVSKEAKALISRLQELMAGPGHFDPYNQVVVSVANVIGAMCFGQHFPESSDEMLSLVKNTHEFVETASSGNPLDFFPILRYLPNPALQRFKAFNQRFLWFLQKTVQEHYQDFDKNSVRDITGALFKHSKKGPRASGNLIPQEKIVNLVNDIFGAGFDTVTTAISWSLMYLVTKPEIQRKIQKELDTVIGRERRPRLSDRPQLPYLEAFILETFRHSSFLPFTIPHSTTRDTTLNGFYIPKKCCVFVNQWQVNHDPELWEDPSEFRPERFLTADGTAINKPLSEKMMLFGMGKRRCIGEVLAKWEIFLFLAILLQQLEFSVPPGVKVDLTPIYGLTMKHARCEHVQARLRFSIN
smiles,measurement,setting,value
NC(N)=Nc1nc(CSCCC(N)=NS(N)(=O)=O)cs1 [Famotidine],human immunodeficiency virus replication,[1],inhibits
same,sars-cov-2 replication,sars-cov-2,inhibits
same,metabolism through Cytochrome P450 system (CYP1A2),CYP1A2,25-30%
